Test results from patent US20040197411A1, “Acceptably non-hygroscopic formulation intermediate comprising a hygroscopic drug” (priority 2002, published 2004).

Test: Moisture sorption analysis by dynamic vapor sorption (DVS)
Assay type: physicochemical
Details: for hygroscopicity and deliquescence: general statement, conditions not given
Protocol: Compound 1 was prepared according to processes described in WO 01/72703. A sample of Compound 1 in substantially dry, amorphous form was subjected to moisture sorption analysis. Dynamic vapor sorption (DVS) was used to determine mass increase (relative to dry mass) was monitored over an adsorption range of 10-70% relative humidity (RH) in increments of 10%. As shown by the moisture sorption isotherm represented in FIG. 1, Compound 1 is hygroscopic.

Row | hygroscopicity and deliquescence | moisture sorption isotherm (mass increase relative to dry mass) (substantially dry, amorphous form, 10-70% RH in increments of 10%, FIG. 1) | SMILES
1 | extremely hygroscopic and deliquescent | hygroscopic | CC(=N)NCCSC[C@](C)(N)C(=O)O.Cl.Cl [Compound 1, S-[2-[(1-iminoethyl)amino]ethyl]-2-methyl-L-cysteine dihydrochloride]
2 | extremely hygroscopic and deliquescent | – | CC(=N)NCCSC[C@](C)(N)C(=O)O [S-[2-[(1-iminoethyl)amino]ethyl]-2-methyl-L-cysteine]
